We go through nine compounds from PMC7842926, “Synergistic effect and ultrastructural changes in Trypanosoma cruzi caused by isoobtusilactone A in short exposure of time” (PLoS ONE, 2021).

The term CC50 denotes the concentration at which the toxic effect on the cells reaches its halfway point. By LC50 is commonly meant the concentration that kills 50% of the test population.

Like-named read-outs stand apart in the source and are kept apart here. Where a SMILES comes first, the peptide text is derived from it. The star is where a group is joined. Cbz = O=C(OCc1ccccc1)*

One series relates to T. cruzi. The following applies: cited from earlier work.
Series [1] concerns amastigotes of T. cruzi (Dm28c). The series can be described thus: Antiproliferative assay on intracellular amastigotes in Vero host cells. It is filed as cell-based, Trypanosoma cruzi. Conditions: for IC50: Trypanosoma cruzi, Vero, 24 hours of treatment, confidence interval in brackets, read-out: Amastigotes (Dm28c) IC50 (CI); for SI (selectivity index): Vero CC50 versus amastigote IC50, 24 hours. As to the method: To determine the antiproliferative effect of butanolides on intracellular amastigote forms (Dm28c), Vero cells were used as host cells. Vero cells were cultured in DMEM and maintained in a CO2 atmosphere at 37°C.
After 4 h of incubation for adherence and infection, the cells were washed with 1x phosphate buffered saline (PBS) and then incubated in DMEM for 20 h to allow differentiation of internalized trypomastigotes into amastigotes.
Vero cells infected with amastigotes were incubated for 4 or 24 h with the compounds (4 concentrations within the range 4–200 μM) in DMEM. After incubation, the cells were washed, fixed in methanol, stained with 4',6-Diamidino-2-phenylindole (DAPI), and photographed using Leica DMI 6000-B fluorescence microscope. The photos obtained were analyzed using the software ImageJ version 1.5 for quantification of total Vero cells and determination of the percentage of infected cells and number of amastigotes per cell. The 50% inhibitory concentration (IC50) was calculated using the infectivity index (II) described by Ceole et al.. DMSO (1%) treatment served as negative control and benznidazole treatment served as positive control.
(§1) The 50% cytotoxic concentration (CC50), x % inhibitory concentration (ICx = IC25, IC50, IC75, or IC90), and 50% lethal concentration (LC50) values were obtained from the percentage of inhibition/death versus log concentration of each compound, by nonlinear regression with variable slope and automatic withdrawal of outliers with ROUT coefficient (Q = 5). […] Graphpad Prism software version 7.04 was used for all regressions.

A further series can be described thus: Cytotoxicity assay (MTT). The following applies: African green monkey (Cercopithecus aethiops), Vero cells (CCL-81); for CC50 at 4 h: 4 h of treatment, read-out: Vero cells (CCL-81) CC50 - 4h (CI); for CC50 at 24 h: 24 hours of treatment, confidence interval in brackets, read-out: Vero cells (CCL-81) CC50 (CI). It is filed as cell-based. As to the method:
Vero cells (CCL-81) isolated from the kidney of the African green monkey Cercopithecus aethiops were purchased from ATCC® (Washington DC, USA). The cells were inoculated in 200 μL of Dulbecco’s modified Eagle (DMEM) medium in 96-well plates at a concentration of 2 × 10^4 cells/well and incubated at 37°C for 24 h for adherence of the cells. Six different concentrations of the compounds (12 to 900 μM for butanolides, and 200 to 1,600 μM for benznidazole) were added to the wells. After 4 or 24 h of treatment, the cells were washed and cell viability was assessed using MTT (3-(4,5-Dimethylthiazol-2-yl)-2,5-Diphenyltetrazolium Bromide) assay (2 mg/mL). After 4 h of incubation at 37°C in a CO2 atmosphere, the wells were washed and 100% DMSO was added to solubilize the formazan crystals. The absorbance was measured at 570 nm using an ELISA plate reader (Biotek Model EL-800, VT, USA). DMSO (1%) treatment served as negative control and benznidazole treatment served as positive control.
as §1

Series [2] has as its system epimastigotes of T. cruzi (Dm28c, TcI). Briefly: Epimastigote cell viability assay (MTS/PMS), Dm28c. It is filed as cell-based, Trypanosoma cruzi. The following applies: for IC50: Trypanosoma cruzi, read-out: Epimastigotes (Dm28c) IC50 - 4h (CI); for activity at concentrations below 50 μg/mL in epimastigotes: 72 h of treatment, Dm28c. As to the method: (§2) Epimastigote forms of three strains of T. cruzi, including Dm28c (TcI), CL Brener (TcVI), and Y strain (TcII), were maintained in liver infusion tryptose (LIT) medium supplemented with 10% fetal bovine serum at 28°C [16] were kindly provided by Oswaldo Cruz Institute/Fiocruz. For the experiments, exponential phase cultures were used. All assays were performed in triplicates in 96-well plates.
The effect of the isolated compounds on the viability of epimastigote forms of Dm28c strain was determined by MTS [3-(4,5-dimethylthiazol-2-yl)-5-(3-carboxymethoxyphenyl)-2-(4-sulfophenyl)-2H-tetrazolium bromide] with PMS (5-methyl-phenazinium methyl sulfate) colorimetric assay, as described by Nunes et al.. […]
(§3) The absorbance of the formazan was measured at 490 nm using a microplate reader (Asys Expert Plus -Biochrom). In parallel, we determined the effect of 1% DMSO (negative control) and benznidazole (positive control) on the viability of epimastigotes and a replicate of each treatment was performed by fixing the epimastigotes with 4% paraformaldehyde prior to the addition of MTS/PMS (basal absorbance control).
as §1

Series [3] concerns epimastigote forms of CL Brener (TcVI). Briefly: Epimastigote cell viability assay (MTS/PMS), CL Brener. Conditions: Trypanosoma cruzi; 4 h of treatment; read-out: IC50 epimastigotes strain CL Brener. It counts as cell-based, Trypanosoma cruzi. On the procedure: as §2, §3, §1
Series [4] concerns epimastigote forms of Y strain (TcII). Briefly: Epimastigote cell viability assay (MTS/PMS), Y strain. It is filed as cell-based, Trypanosoma cruzi. Conditions: Trypanosoma cruzi; 4 h of treatment; read-out: IC50 epimastigotes strain Y. On the procedure:
as §2, §3, §1

Series [5] has as its system epimastigotes of T. cruzi (Dm28c, TcI). More on the design: method as in PMID 32327956. Conditions: 24 h of treatment; read-out: IC50 epimastigote forms of Dm28c strain; cited from earlier work.
The test system of series [6] is trypomastigote forms of the parasite (Dm28c). Briefly: microbe, parasite or virus in culture. It counts as cell-based. As to the method: Cell-derived trypomastigotes (Dm28c) were obtained from the supernatant of infected Vero cell cultures. Vero cells (9 × 10^5 cells/mL) and trypomastigotes were seeded at a ratio of 1:10 into culture bottles (75 cm^2) containing DMEM. After 4 h of incubation, the bottles were washed to remove unadhered trypomastigotes and incubated for another 96 h under CO2 atmosphere at 37°C. After 96 h of incubation, new trypomastigote forms were collected from the supernatant and used to perform the assays.
The lysis assay was performed in 96-well plates in technical triplicates (4 concentrations within the range 4–250 μM for butanolides and 200–1,600 μM for benznidazole), and the trypomastigotes (1 x 10^6 parasites/well) were incubated in 200 μL of DMEM (supplemented with 10% FBS, 100 μg/mL streptomycin, and 100 IU/mL penicillin) with the compounds at 37°C for 4 h. The test, negative control (1% DMSO), and positive control (benznidazole) parasites were fixed and counted in Neubauer's chamber.
as §1

In series [7] the test system is trypomastigotes. Conditions: period of treatment 24 h; read-out: IC50 against trypomastigotes; cited from earlier work.
In another series the test system is amastigote forms. The following applies: longer treatment periods; read-out: activity against amastigote forms; cited from earlier work.
Series [8] has as its system trypomastigotes. Conditions: concentration greater than 40 μM, exposure time of 18 hours; cited from earlier work.
[9] abbreviates: 4 h of treatment, Na = not active.

For the compound `CC(C)=CCCC(C)=CC=O` (mixture of isomers) [Citral], the inhibition of metacyclogenesis with T. cruzi (30 μg/mL) is 54%.
`O=C(Cn1ccnc1[N+](=O)[O-])NCc1ccccc1` [Benznidazole, benznidazole, reference compound]: the IC50 in series [1] was 6.57 µM; in [2] (setting [9]), > 1600 µM; in series [3] it was > 1600 µM; in series [4], > 1600 µM. The “SI (selectivity index)” value in series [1] is reported as 174. For the same compound, the CC50 at 4 h in the series “Cytotoxicity assay (MTT)” is > 1600 µM. The CC50 at 24 h in the series “Cytotoxicity assay (MTT)” stood at 1140 µM.
As to `CCCCCCCCCCCCC/C=C1\C(=O)O[C@@H](C)[C@H]1O` [Epilitsenolide C1, epilitsenolide C1], the “Epimastigotes (Dm28c) IC50 - 4h (CI)” value in series [2] (setting [9]) is on record as “did not show activity”. Besides, the “activity at concentrations below 50 μg/mL in epimastigotes” value in series [2] is reported as “exhibited activity”. The IC50 in series [5] is 7.77 µM.
For `CC(C)[C@H](NC(=O)OCc1ccccc1)C(=O)N[C@H](C=O)Cc1ccccc1` [MDL28170] (Cbz-Val-Phe-aldehyde), the inhibition of differentiation in the series with T. cruzi (50 μM, 96-hour treatment) is ~50%.
`CCCCCCCCCCCCC/C=C1\CC(CO)OC1=O` (stereo not shown) [Majoranolide, majoranolide]: the IC50 was 21.9 µM in [1] and > 250 µM in series [2] (setting [9]). The “SI (selectivity index)” value in series [1] is recorded as 7.57; in series [2] (Vero CC50 4 h versus epimastigote Dm28c IC50 4 h), 0.94; in [6] (trypomastigotes Dm28c, 4 h, Vero cells), 7.77. Besides, in the series “Cytotoxicity assay (MTT)”, the CC50 at 4 h is 558 µM. The CC50 at 24 h in “Cytotoxicity assay (MTT)” came to 166 µM. In addition, the “activity at concentrations below 50 μg/mL in epimastigotes” value in series [2] was “exhibited activity”. For the same compound, in series [6] (Trypanosoma cruzi, 4 h of treatment, read-out: LC50 against trypomastigote forms (Dm28c)), the LC50 is 71.7 µM.
As to `C=C1OC(=O)/C(=C\CCCCCCCCCCCCCCC)[C@H]1O` [isolinderanolide E], the IC50 in the series with trypomastigotes [7] is 29.9 µM; in the series with amastigote forms it was 10.1 µM.
Consider `Oc1ccc(/C=C/c2cc(O)cc(O)c2)cc1` [resveratrol], for which the reduction of infection entry in the series on trypomastigotes [8] was “by half”.
For `CCCCCCCCCCCCCCC/C=C(/C(=O)OC)[C@H](O)C(C)=O` [secosubamolide A], the IC50 in the series with trypomastigotes [7] was 12.5 µM; in the series on amastigote forms it was 12.3 µM.
As for isolinderanolide D, the IC50 was 12.9 µM in the series with trypomastigotes [7] and 25.3 µM in the series with amastigote forms.
